{"source": "paper PMC8116058", "about": "“De novo macrocyclic peptides dissect energy coupling of a heterodimeric ABC transporter by multimode allosteric inhibition” (eLife, 2021)", "key": {"[1]": {"tested_on": "TmrAB", "assay": "Competition of C4F peptide binding by CP^Bs (fluorescence anisotropy)", "design": "species or system Thermus thermophilus", "source_text": "(§1) To elucidate the mechanistic basis for the inhibition of ATP hydrolysis and substrate transport, we investigated the effects of CPs on substrate binding. In the first approach, fluorescent CP^Fs were used as reporters in fluorescence polarization. […] In addition, we examined the impact of CP^Bs on ATP binding to TmrAB by scintillation proximity assays (SPA) (Figure 4C). […] Taken together, CPs are high-affinity allosteric inhibitors of TmrAB that leave ATP binding and substrate interaction largely unaffected, while impairing ATP hydrolysis and substrate translocation across the membrane.\n(§2) Figure 4. […] (A) CP^Fs binding TmrAB is not affected by substrate peptide binding. […] For competition, C4^ATTO655 peptide (2 µM) or R9LQK peptide (200 µM) were added. (B) Binding of C4F peptide is not affected by CP^Bs. C4F peptides (50 nM) were mixed with TmrAB (4 µM), and fluorescence anisotropy was monitored as described in (A). For competition, C4^ATTO655 (10 µM) or CP^Bs (6 µM) were added. […] TmrAB (0.2 µM) were immobilized on SPA beads and incubated with ATP (3 μM, traced with ^3H-ATP) in the presence and absence of CP^Bs (1 µM each) for 30 min on ice. ATP binding was monitored by SPA. Background values were determined after releasing TmrAB complexes from the beads by adding imidazole (200 mM). The background signal in the absence of CP^Bs was set to 0 cpm. […] As this is an equilibrium experiment, this can be rationalized by the fact that CP13 stabilizes the ATP-bound OF conformer. Figure 4—source data 1. Source data for Figure 4.\n(§3) To determine equilibrium binding constants, CP^Fs (50 nM) were incubated with increasing concentrations of TmrAB-containing or empty liposomes. To probe the conformational selectivity, CP^Fs (50 nM) were mixed with detergent-solubilized IF TmrAB or OF TmrA^EQB. Before, OF TmrA^EQB was nucleotide-trapped by incubation with ATP (1 mM) and MgCl2 (3 mM) in the absence of CP^Fs for 5 min at 45°C. […] For peptide competition studies, RRYC^fluoresceinKSTEL (C4F, 50 nM) were incubated with detergent-solubilized TmrAB (4 µM), CP^Bs (6 µM), or C4^ATTO655 (10 µM). […] Fluorescence anisotropy was analyzed at λex/em of 485/520 nm using a microplate reader (CLARIOstar, BMG LABTECH). Fluorescence anisotropy was calculated using:(1) r=I||−I⊥/I||+2⋅I⊥ with I||: parallel intensity and I⊥: perpendicular intensity. Binding of CP^Fs were fitted by a one-site binding model (Langmuir 1:1) using:(2) Y=Bmax∙[L]/KD+[L] with Y: binding, Bmax: maximal binding, KD: equilibrium dissociation constant, and [L]: ligand concentration. Data represent mean ± SD from three experiments."}, "[2]": {"tested_on": "TmrAB", "assay": "Competition of CP^F binding by substrate peptides (fluorescence anisotropy)", "design": "species or system Thermus thermophilus", "conditions": "C4^ATTO655 2 µM or R9LQK 200 µM, above their KD values", "source_text": "as §1, §2, §3"}, "[3]": {"biological_target": "T1, TmrAB reconstituted in liposomes (Thermus thermophilus, UniProt Q72J04+Q72J05)", "T1 sequence (Q72J05 1-600)": "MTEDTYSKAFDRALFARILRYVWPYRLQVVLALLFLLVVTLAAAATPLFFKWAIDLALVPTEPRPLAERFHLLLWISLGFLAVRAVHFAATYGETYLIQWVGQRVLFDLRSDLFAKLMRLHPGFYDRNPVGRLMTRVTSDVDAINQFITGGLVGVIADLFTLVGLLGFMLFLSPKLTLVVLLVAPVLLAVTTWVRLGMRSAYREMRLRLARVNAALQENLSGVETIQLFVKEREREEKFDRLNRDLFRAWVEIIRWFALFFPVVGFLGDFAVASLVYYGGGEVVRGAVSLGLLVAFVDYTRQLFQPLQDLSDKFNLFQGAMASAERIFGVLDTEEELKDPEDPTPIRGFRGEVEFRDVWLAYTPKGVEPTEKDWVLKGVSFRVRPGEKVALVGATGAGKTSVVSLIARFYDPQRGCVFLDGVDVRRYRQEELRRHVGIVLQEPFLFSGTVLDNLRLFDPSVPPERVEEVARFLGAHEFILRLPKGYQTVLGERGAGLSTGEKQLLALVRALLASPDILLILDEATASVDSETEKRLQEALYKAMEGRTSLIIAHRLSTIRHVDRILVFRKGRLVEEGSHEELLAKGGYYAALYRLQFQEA", "T1 sequence (Q72J04 1-578)": "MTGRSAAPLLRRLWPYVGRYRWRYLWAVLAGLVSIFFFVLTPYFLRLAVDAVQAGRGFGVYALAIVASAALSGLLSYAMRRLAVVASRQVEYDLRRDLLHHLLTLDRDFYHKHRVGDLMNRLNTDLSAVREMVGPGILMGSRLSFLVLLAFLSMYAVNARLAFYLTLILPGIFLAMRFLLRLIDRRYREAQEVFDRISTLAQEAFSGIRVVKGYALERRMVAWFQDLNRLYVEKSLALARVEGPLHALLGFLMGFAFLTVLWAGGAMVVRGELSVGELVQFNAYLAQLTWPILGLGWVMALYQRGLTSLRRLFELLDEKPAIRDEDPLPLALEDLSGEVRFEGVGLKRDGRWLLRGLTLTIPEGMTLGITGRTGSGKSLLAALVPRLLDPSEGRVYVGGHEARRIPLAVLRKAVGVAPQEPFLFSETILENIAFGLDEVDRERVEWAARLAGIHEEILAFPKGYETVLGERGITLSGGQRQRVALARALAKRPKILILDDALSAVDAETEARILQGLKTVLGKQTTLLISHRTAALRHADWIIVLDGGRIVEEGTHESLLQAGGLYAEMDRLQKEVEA", "assay": "Filter-based transport assay, CP^Fs tested as substrates", "type": "biochemical", "conditions": "TmrAB 0.4 µM in liposomes, C4F 3 µM or CP^F 1 µM, 5 min 45°C", "source_text": "In order to investigate the functional impact of CPs, we examined the effect of the CPs on ATP hydrolysis and substrate transport of TmrAB (Figure 3A). We reconstituted TmrAB in liposomes and first assayed the ATPase activity. […] We next set out to investigate peptide transport by TmrAB using a filter-based transport assay. To investigate whether CPs are recognized as substrates by TmrAB, we added fluorescein-labeled CP^Fs and examined ATP-dependent translocation. In contrast to the linear substrate peptide C4F, none of the CP^Fs were transported by TmrAB (Figure 3C). Next, we examined ATP-dependent transport of C4F peptides in the presence and absence of the different CPs.\nFigure 3. CP^Fs are potent inhibitors of ATP turnover and substrate transport. (A) Experimental scheme of ATP hydrolysis and peptide transport by TmrAB. (B) CP^Fs inhibit ATP hydrolysis. TmrAB in liposomes (100 nM) was incubated with ATP (2 mM, traced with [γ^32P]-ATP), and MgCl2 (5 mM) in the presence and absence of CP^Fs (1 µM) for 10 min at 45°C. Autohydrolysis was determined in the absence of TmrAB, and background turnover was conducted in the presence of EDTA (10 mM). Release of [γ^32P] was quantified by thin layer chromatography. (C) CP^Fs are not transported by TmrAB. TmrAB (0.4 µM) reconstituted in liposomes was incubated with C4F peptide (3 µM) or CP^Fs (1 µM) in the presence of ATP/ADP (3 mM) and MgCl2 (5 mM) for 5 min at 45°C. Since CP^Fs were dissolved in maximal 0.5% (v/v) of DMSO, C4F plus 0.5% DMSO served as control. Proteoliposomes were washed on filter plates, and transported peptides were quantified at λex/em = 485/520 nm. (D) Inhibition of substrate translocation. TmrAB in liposomes (0.4 µM) were incubated with C4F peptide (3 µM), ATP/ADP (3 mM), and MgCl2 (5 mM) in the presence and absence of CP^Fs (1 µM) for 15 min at 45°C. Transported peptides were quantified as described in (C). In (B–C), mean values ± SD (n = 3) are shown. Figure 3—source data 1. Source data for Figure 3.\nTmrAB in liposomes (0.4 µM) were incubated with ATP/ADP (3 mM), MgCl2 (5 mM), C4F peptide (3 µM), and CP^Fs (1 µM) for 15 min at 45°C. […] Proteoliposomes were solubilized by adding SDS (1% [v/v]) in transport buffer for 10 min at 20°C. Transported peptides were quantified at λex/em = 485/520 nm using a microplate reader (CLARIOstar, BMG LABTECH)."}, "[4]": {"tested_on": "wild-type TmrAB", "assay": "Nucleotide occlusion, wild-type TmrAB", "type": "biochemical, Thermus thermophilus", "conditions": "TmrAB 2 µM; CP^F 4 µM or orthovanadate 1 mM; ATP 1 mM traced with [α32P]-ATP; 5 min 45°C; normalized to vanadate-trapped state", "method": "Figure 5. […] (A, B) CP6^F (A) or CP13^F (B, 50 nM each) were incubated with increasing concentrations of detergent-solubilized inward-facing TmrAB (in the absence of Mg-ATP) or outward-facing TmrA^EQB, which was trapped with Mg-ATP (1 mM) for 5 min at 45°C as described ([Hofmann et al., 2019]; [Stefan et al., 2020]). Immediately after, the fluorescence anisotropy was assayed at λex/em = 485/520 nm. The difference in fluorescence polarization was normalized to free and fully bound CP^F. Data were fitted by a one-site binding model. […] TmrAB (2 µM each) were mixed with CP^Fs (4 µM), ATP (1 mM, traced with [α^32P]-ATP), and MgCl2 (5 mM) for 5 min at 4°C or 45°C. Cold ATP (10 mM) was added, and freely exchangeable nucleotides were removed by rapid gel filtration. Occluded nucleotides were analyzed by thin layer chromatography and autoradiography. Representative radiograms for independent triplicates are shown. (D) Stably occluded nucleotides, [α^32P]-ATP and [α^32P]-ADP, were quantified by autoradiography. Data were normalized to the vanadate-trapped state. In (A, B, D), mean values ± SD (n = 3) are shown. Figure 5—source data 1. Source Data for Figure 5. Figure 5—figure supplement 1. […] (A) CP^Fs (50 nM each) were incubated with increasing concentrations of detergent-solubilized IF TmrAB in the inward-facing (IF) conformation (absence of Mg-ATP) or TmrA^EQB populated in the outward-facing (OF) conformation, which was trapped in the OF conformation by Mg-ATP (1 mM) after 5 min incubation at 45°C. The difference in fluorescence polarization was normalized to unbound (0%) and 100% bound CP^F. Data were fitted by a one-site binding model. Fluorescence anisotropy was recorded at λex/em = 485/520 nm. […] TmrA^EQB (2 µM) were incubated in the absence and presence of CP^Fs (4 µM each), ATP (1 mM, traced with [α^32P]-ATP), and MgCl2 (5 mM) for 5 min at 4°C or 45°C. Cold ATP (10 mM) was added, and free nucleotides were removed by rapid gel filtration. Occluded nucleotides were analyzed by thin layer chromatography and autoradiography. Representative radiograms for independent triplicates are shown. […] Figure 5—figure supplement 1—source data 1.\nWe also examined the impact of CP^Fs on the IF-to-OF transition of wild-type TmrAB induced by ATP binding through nucleotide occlusion (stable trapping) as the readout. We induced the IF-to-OF switch with radiotraced [α^32P]-ATP for 5 min at 45°C in the presence and absence of CPs and removed unbound nucleotides by rapid gel filtration. Subsequently, the occluded nucleotides were identified and quantified by thin layer chromatography and autoradiography (Figure 5C, D).\nDetergent-solubilized TmrAB (2 µM) were incubated with ATP (1 mM) traced with [α^32P]-ATP (Hartmann Analytic), MgCl2 (5 mM), CP^Fs (4 µM), or orthovanadate (1 mM) for 5 min at 45°C. Cold ATP (10 mM) was added, and unbound nucleotides were removed by rapid gel filtration (Bio-Spin columns P-30, Bio-Rad). ATP (10 mM) was added, and samples were spotted onto polyethyleneimine cellulose plates (Merck Millipore). Thin-layer chromatography was performed using 0.75 M KH2PO4 pH 3.4."}}}
{"compound": "RRYC^ATTO655KSTEL [C4^ATTO655, reference compound]", "values": [{"measurement": "Bound C4F peptide, fluorescence anisotropy", "setting": "[1]; C4F 50 nM + TmrAB 4 µM + competitor (CP^B 6 µM or C4^ATTO655 10 µM)", "value": 0.045}, {"measurement": "Competition of C4F peptide binding", "setting": "[1]; CP^B 6 µM or C4^ATTO655 10 µM as competitor", "value": "interfered with C4F peptide binding"}, {"measurement": "Effect of transported peptides on CP^F binding to TmrAB", "setting": "[2]", "value": "did not affect binding of CP^Fs to TmrAB"}]}
{"compound": "RRYC^fluoresceinKSTEL [C4F, reference compound]", "values": [{"measurement": "Transported peptide", "setting": "[3]; ADP 3 mM (background)", "value": 0.00, "unit": "µmol·g/min"}, {"measurement": "Transported peptide", "setting": "[3]; ATP 3 mM", "value": 1.64, "unit": "µmol·g/min"}, {"measurement": "Bound C4F peptide, fluorescence anisotropy", "setting": "[1]; listed as -: baseline of C4F 50 nM", "value": 0.023}, {"measurement": "Bound C4F peptide, fluorescence anisotropy", "setting": "[1]; listed as C4F: C4F 50 nM + TmrAB 4 µM, no competitor", "value": 0.129}]}
{"compound": "[O]=[V]([O-])([O-])[O-]", "note": "[Vanadate, orthovanadate, reference compound]", "values": [{"measurement": "Occluded nucleotides, ADP", "setting": "[4]", "value": 56.67, "unit": "%"}, {"measurement": "Occluded nucleotides, ATP", "setting": "[4]", "value": 62.96, "unit": "%"}]}
{"compound": "RRYQKSTEL [R9LQK, reference compound]", "values": [{"measurement": "Effect of transported peptides on CP^F binding to TmrAB", "setting": "[2]", "value": "did not affect binding of CP^Fs to TmrAB"}]}
